# According to ChEMBL document CHEMBL1201862, “PubChem BioAssay data set” (2004):
#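 The compound was tested at five concentrations on cells cultured in 96-well plates, with a 48-hour exposure period. GI50: concentration for 50% inhibition of growth.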 Active and inactive are the calls of the source. Rule as the data show it: active = GI50 up to about 1.1 µM and inactive = higher.
# Tests used:
# Assay in all cases: growth of human tumour cells (NCI), 48 h
# [1] = test system: SF-539
# [2] = test system: CCRF-CEM
# [3] = test system: OVCAR-4
# [4] = test system: HOP-18
# [5] = test system: A549
# [6] = test system: KM-20L2
# [7] = test system: OVCAR-5
# [8] = test system: EKVX
# [9] = test system: 786-0
# [10] = test system: CAKI-1
# [11] = test system: M14
# [12] = test system: LXFL 529
# [13] = test system: OVCAR-3
# [14] = test system: UO-31
# [15] = test system: DMS-114
# [16] = test system: SF-268
# [17] = test system: LOX IMVI
# [18] = test system: SW-620
# [19] = test system: SK-MEL-5
# [20] = test system: TK-10
# [21] = test system: U-251
# [22] = test system: DLD-1
# [23] = test system: HCC 2998
# [24] = test system: SR
# [25] = test system: RXF 393
# [26] = test system: SNB-75
# [27] = test system: NCI-H460
# [28] = test system: M19-MEL
# [29] = test system: SK-MEL-2
# [30] = test system: XF498
# [31] = test system: IGROV-1
# [32] = test system: SN12C
# [33] = test system: SF-295
# [34] = test system: NCI-H23
# [35] = test system: HOP-92
# [36] = test system: HOP-62
# [37] = test system: Malme-3M
# [38] = test system: HL-60
# [39] = test system: NCI-H522
# [40] = test system: OVCAR-8
# [41] = test system: A498
# [42] = test system: SNB-19
# [43] = test system: MOLT-4
# [44] = test system: HT-29
# [45] = test system: SK-OV-3
# [46] = test system: NCI-H226
# [47] = test system: SNB-78
# [48] = test system: K562
# [49] = test system: DMS-273
# [50] = test system: HCT-15
# [51] = test system: UACC-257
# [52] = test system: KM12
# [53] = test system: RXF 631
# [54] = test system: RPMI-8226
# [55] = test system: COLO 205
# [56] = test system: HCT-116
# [57] = test system: UACC-62
smiles,measurement,setting,value
O=C(O)c1ccc([I+]c2ccccc2)cc1,GI50,[1],> 100 µM (inactive)
same,GI50,[2],> 100 µM (inactive)
same,GI50,[3],> 100 µM (inactive)
same,GI50,[4],> 100 µM (inactive)
same,GI50,[5],> 100 µM (inactive)
same,GI50,[6],> 100 µM (inactive)
same,GI50,[7],> 100 µM (inactive)
same,GI50,[8],> 100 µM (inactive)
same,GI50,[9],> 100 µM (inactive)
same,GI50,[10],> 100 µM (inactive)
same,GI50,[11],> 100 µM (inactive)
same,GI50,[12],> 100 µM (inactive)
same,GI50,[13],> 100 µM (inactive)
same,GI50,[14],> 100 µM (inactive)
same,GI50,[15],> 100 µM (inactive)
same,GI50,[16],> 100 µM (inactive)
same,GI50,[17],> 100 µM (inactive)
same,GI50,[18],> 100 µM (inactive)
same,GI50,[19],> 100 µM (inactive)
same,GI50,[20],> 100 µM (inactive)
same,GI50,[21],> 100 µM (inactive)
same,GI50,[22],> 100 µM (inactive)
same,GI50,[23],> 100 µM (inactive)
same,GI50,[24],> 100 µM (inactive)
same,GI50,[25],> 100 µM (inactive)
same,GI50,[26],> 100 µM (inactive)
same,GI50,[27],> 100 µM (inactive)
same,GI50,[28],> 100 µM (inactive)
same,GI50,[29],> 100 µM (inactive)
same,GI50,[30],> 100 µM (inactive)
same,GI50,[31],> 100 µM (inactive)
same,GI50,[32],> 100 µM (inactive)
same,GI50,[33],> 100 µM (inactive)
same,GI50,[34],> 100 µM (inactive)
same,GI50,[35],> 100 µM (inactive)
same,GI50,[36],> 100 µM (inactive)
same,GI50,[37],> 100 µM (inactive)
same,GI50,[38],> 100 µM (inactive)
same,GI50,[39],> 100 µM (inactive)
same,GI50,[40],> 100 µM (inactive)
same,GI50,[41],> 100 µM (inactive)
same,GI50,[42],> 100 µM (inactive)
same,GI50,[43],> 100 µM (inactive)
same,GI50,[44],> 100 µM (inactive)
same,GI50,[45],> 100 µM (inactive)
same,GI50,[46],> 100 µM (inactive)
same,GI50,[47],> 100 µM (inactive)
same,GI50,[48],> 100 µM (inactive)
same,GI50,[49],> 100 µM (inactive)
same,GI50,[50],> 100 µM
same,GI50,[51],> 100 µM (inactive)
same,GI50,[52],> 100 µM (inactive)
same,GI50,[53],> 100 µM (inactive)
same,GI50,[54],> 100 µM (inactive)
same,GI50,[55],> 100 µM (inactive)
same,GI50,[56],> 100 µM (inactive)
same,GI50,[57],> 100 µM (inactive)
